Assays:
[1] = system: interaction between PreS and capsid protein (PreS-PH / Capsid-GFP) in HEK293T cells; assay type: cell-based; conditions: 50 μM peptide; transfected HEK293T cells; FIG. 6
[2] = molecular target: interaction between capsid protein and PreS protein (Hepatitis B virus genotype D subtype ayw, UniProt P03146, F97I/I116L/INS152DR/S87N/V74N); conditions: serially diluted peptide; Trx-PreS fixed on plate, purified capsid protein; FIG. 5

In the case of “RQPTPISPPLRDSHPQAMQWNS (deleted L4b peptide) [PreS derived peptide]”, the “location of GFP fluorescence image of Capsid-GFP fusion protein (inhibition of interaction)” value [1] is reported as “located not in cell membrane but in cytoplasm of cells” and the “inhibition of the interaction between capsid protein and PreS protein (OD490)” value [2] is reported as “inhibited the interaction between capsid protein and PreS protein dose-dependently”.
